Values quoted from earlier work as cited in patent US11648207B1, “Extended release pharmaceutical composition of Clozapine” (priority 2021, dated 2023).

Key:
[1] = in vivo

- solubility in water: very slightly soluble in water
- mean terminal half-life [1]: 12 h
SMILES: CN1CCN(C2=Nc3cc(Cl)ccc3Nc3ccccc32)CC1 [Clozapine, 8-chloro-11-(4-methyl-1-piperazinyl)-5H-dibenzo[b,e][1,4]diazepine]
